Experiments:
[1] = In vivo screen designated APCC: blood cholesterol in rats on chow supplemented with peanut oil, cholesterol and cholic acid; conditions: cholesterol in blood, male Sprague-Dawley rats, oral, 30 milligrams per kilogram, single dose 4 PM, blood samples 8 AM next day, vs vehicle control (CMC/Tween); for change in vivo at 30 mg/kg: Rattus norvegicus, 16 h, read-out: % Change (mg/dl)
Description: In one in vivo screen designated APCC, male Sprague-Dawley rats (200 to 225 g) were randomly divided into treatment groups and dosed orally at 4 PM with either vehicle (CMC/Tween) or suspensions of test compounds in vehicle. The control group received vehicle alone. Immediately after dosing, all animals received ad libitum a chow diet supplemented with peanut oil (5.5%), cholesterol (1.5%) and cholic acid (0.5%). The next day the animals were sacrificed at 8 AM to obtain blood samples for cholesterol analysis using standard procedures. Statistical differences between mean cholesterol values for the same vehicle were determined using analysis of variance followed by Fisher's least significant test. The compounds were administered at 30 milligrams per kilogram of body weight.

[2] = target: T1, acyl-CoA:cholesterol acyltransferase (ACAT) (Oryctolagus cuniculus, UniProt G1SFD9); assay: In vitro ACAT inhibition: radiolabeled cholesterol oleate formed from radiolabeled oleic acid in rabbit intestinal microsomes; type: biochemical; conditions: concentration required to inhibit 50% activity of the enzyme
T1 sequence (G1SFD9 1-524): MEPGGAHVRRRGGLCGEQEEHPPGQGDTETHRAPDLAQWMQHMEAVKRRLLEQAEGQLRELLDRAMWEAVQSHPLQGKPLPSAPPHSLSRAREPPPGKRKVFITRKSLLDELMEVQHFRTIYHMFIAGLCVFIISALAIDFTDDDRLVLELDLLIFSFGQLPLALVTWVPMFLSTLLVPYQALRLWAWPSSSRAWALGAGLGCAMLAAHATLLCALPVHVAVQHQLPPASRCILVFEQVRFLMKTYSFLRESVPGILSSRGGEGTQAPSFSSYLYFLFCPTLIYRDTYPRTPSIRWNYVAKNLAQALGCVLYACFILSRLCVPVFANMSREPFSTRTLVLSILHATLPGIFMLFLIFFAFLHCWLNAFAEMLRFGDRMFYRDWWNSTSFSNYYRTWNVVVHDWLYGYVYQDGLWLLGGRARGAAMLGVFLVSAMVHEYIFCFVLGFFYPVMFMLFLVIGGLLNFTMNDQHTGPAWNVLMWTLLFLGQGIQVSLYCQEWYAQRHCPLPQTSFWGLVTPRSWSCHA
Description: The ability of representative compounds of the present invention to inhibit ACAT was measured using an in vitro test more fully described by Field, F. J. and Salone, R. G., in Biochemica et Biophysica 712:557-570 (1982). The test assesses the ability of a test compound to inhibit the acylation of cholesterol by oleic acid by measuring the amount of radiolabeled cholesterol oleate formed from radiolabeled oleic acid in a tissue preparation containing rabbit intestinal microsomes.

Compound	change in vivo at 30 mg/kg [1] [%]	IC50 [2] [µM]	% Change (mg/dl) [1] [%]
CCCCCCCCCCCc1nc(NC(=O)Nc2c(C(C)C)cccc2C(C)C)n(C(C)=O)n1 [Example 1, N-[2,6-bis(1-methylethyl)phenyl]-N'-(2-acetyl-5-undecyl-2H-1,2,4-triazol-3-yl)urea]	-38	> 5	
CCCCCCCCCCCc1nc(NC(=O)Nc2c(C(C)C)cccc2C(C)C)n[nH]1 [Example 2, N-[2,6-bis(1-methylethyl)phenyl]-N'-(5-undecyl-1H-1,2,4-triazol-3-yl)urea]	-31	> 5	
CCCCCCCCCCCCc1nc(NC(=O)Nc2c(C(C)C)cccc2C(C)C)n[nH]1 [Example 4, N-[2,6-bis(1-methylethyl)phenyl]-N'(5-dodecyl-1H-1,2,4-triazol-3-yl)urea]	12		
CCCCCCCCCCCCCCc1nc(NC(=O)Nc2c(C(C)C)cccc2C(C)C)n[nH]1 [Example 6]	-1	> 5	
CCCCCCCCCCCn1ncnc1NC(=O)Nc1c(C(C)C)cccc1C(C)C [Example 7, N-[2,6-bis(1-methylethyl)phenyl]-N'-(2-undecyl-2H-1,2,4-triazol-3-yl)urea]	-38	0.14	
CCCCCCCCCCCn1cnc(NC(=O)Nc2c(C(C)C)cccc2C(C)C)n1 [Example 8, N-[2,6-bis(1-methylethyl)phenyl]-N-(1-undecyl-1,2,4-triazol-3-yl)urea]	-39	0.11	
CCCCCCCCCCCn1cnnc1NC(=O)Nc1c(C(C)C)cccc1C(C)C [Example 9, N-[2,6-bis(1-methylethyl)phenyl]-N'(4-undecyl-1,2,4-triazol-3-yl)urea]	-21	0.67	
CCCCCCCCCCCCn1cnc(NC(=O)Nc2c(C(C)C)cccc2C(C)C)n1 [Example 11, N-[2,6-bis(1-methylethyl)phenyl]-N'-(1-dodecyl-1H-1,2,4-triazol-3-yl)urea]	-30	1.5	
CCCCCCCCCCCCn1cnnc1NC(=O)Nc1c(C(C)C)cccc1C(C)C [Example 12, N-[2,6-bis(1-methylethyl)phenyl]-N'-(4-dodecyl-4H-1,2,4-triazol-3-yl)urea]	-28		
CCCCCCCCCCCCSc1nnc(NC(=O)Nc2c(C(C)C)cccc2C(C)C)n1C(C)=O [Example 13, 4-acetyl-N-[[[2,6-bis(1-methylethyl)phenyl]amino]carbonyl]-5-(dodecylthio)-4H-1,2,4-triazol-3-amine]	-41	0.6	
CCCCCCCCCCCCCSc1nnc(NC(=O)Nc2c(C(C)C)cccc2C(C)C)n1C(C)=O [Example 14, 4-Acetyl-N-[[[2,6-bis(1-methylethyl)phenyl]amino]carbonyl]-5-(tridecylthio)-4H-1,2,4-triazol-3-amine]	-21		
CCCCCCCCCCCCCSc1nnc(NC(=O)Nc2c(C(C)C)cccc2C(C)C)[nH]1 [Example 15, N-[[[2,6-Bis(1-methylethyl)phenyl]amino]carbonyl]-5-(tridecylthio)-4H-1,2,4-triazol-3-amine]	12		
CCCCCCCCCCCCC[S+]([O-])c1nc(NC(=O)Nc2c(C(C)C)cccc2C(C)C)n[nH]1 (stereo not shown) [Example 16, N-[2,6-Bis(1-methylethyl)phenyl]-N'-[5-(tridecylsulfinyl)-1H-1,2,4-triazol-3-yl]urea]	-6		
CCCCCCCCCCCCCS(=O)(=O)c1nnc(NC(=O)Nc2c(C(C)C)cccc2C(C)C)[nH]1 [Example 17]	-11		
CCCCCCCCCCCc1nnc(NC(=O)Nc2c(C(C)C)cccc2C(C)C)s1 [Example 18, N-[2,6-bis(1-methylethyl)phenyl]-N'-(5-undecyl-1,3,4-thiadiazol-2-yl)urea]	-44	0.039	
Cc1nnc(NC(=O)Nc2c(C(C)C)cccc2C(C)C)s1 [Example 19, N-[2,6-bis(1-methylethyl)phenyl]-N'-(5-methyl-1,3,4-thiadiazol-2-yl)urea]		> 5	
CCCCCCCc1nnc(NC(=O)Nc2c(C(C)C)cccc2C(C)C)s1 [Example 20, N-[2,6-bis(1-methylethyl)phenyl]-N'-(5-heptyl-1,3,4-thiadiazol-2-yl)urea]	-25	0.4	
CCCCCCCCCc1nnc(NC(=O)Nc2c(C(C)C)cccc2C(C)C)s1 [Example 21, N-[2,6-bis(1-methylethyl)phenyl]-N'-(5-nonyl-1,3,4-thiadiazol-2-yl)urea]	-45		
CCCCCCCCCCCCCc1nnc(NC(=O)Nc2c(C(C)C)cccc2C(C)C)s1 [Example 22, N-[2,6-bis(1-methylethyl)phenyl]-N'-(5-tridecyl-1,3,4-thiadiazol-2-yl)urea]	-8		
CCCCCCCCCCCCc1nnc(NC(=O)Nc2c(C(C)C)cccc2C(C)C)s1 [Example 23, N-[2,6-bis(1-methylethyl)phenyl]-N'-(5-dodecyl-1,3,4-thiadiazol-2-yl)urea]	-32	0.034	
CC(C)c1cccc(C(C)C)c1NC(=O)Nc1nc(-c2ccccc2)ns1 [Example 24, N-[2,6-Bis(1-methylethyl)phenyl]-N'-(3-phenyl-1,2,4-thiadiazol-5-yl)urea]		> 5	
CCCCCCCCCCCCCc1nnc(NC(=O)Nc2c(C(C)C)cccc2C(C)C)o1 [Example 25, N-[2,6-bis(1-methylethyl)phenyl]-N'-(5-tridecyl-1,3,4-oxadiazol-2-yl)urea]	-62		
CCCCCCCCCCCCCc1nc(NC(=O)Nc2c(C(C)C)cccc2C(C)C)no1 [Example 26, N-[2,6-bis(1-methylethyl)phenyl]-N'-[5-tridecyl-1,2,4-oxadiazol-3-yl]urea]		0.007	
CSc1nnc(NC(=O)Nc2c(C(C)C)cccc2C(C)C)[nH]1 [Example 27]		> 5	
N-[2,6-bis(1-methylethyl)phenyl]-N'-(2-dodecyl-1H-1,2,4-triazol-5-yl)urea [Example 10]		0.25	-36
